The conditions of the data set: Liquid.

± gives the expanded uncertainty stated by the source.

For `CO` [methanol], the Critical pressure came to 8120 ± 250 kPa and the Critical temperature was 512.6 ± 2.5 K.
For `O=C=O` [carbon dioxide], in that order: 7420 ± 250 kPa and 304.5 ± 2.5 K.
With `CCCCCC` [hexane], the Critical pressure is 3020 ± 250 kPa and the Critical temperature was 507.4 ± 2.5 K.
